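In this assay, cells in 96-well plates receive the compound at five concentrations for 48 hours. Endpoints are linearly interpolated between the surrounding concentrations. GI50: concentration for 50% inhibition of growth.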 Calls of active or inactive are those of the source. No stated cut-off is given here; in the data, active = GI50 up to about 1.1 µM and inactive = higher.
Experiments:
Assay in all cases: inhibition of tumour cell growth, NCI panel, 48 h
[1] = test system: U-251
[2] = test system: NCI-H522
[3] = test system: SF-268
[4] = test system: PC-3
[5] = test system: A498
[6] = test system: HT-29
[7] = test system: T47D
[8] = test system: NCI/ADR-RES
[9] = test system: NCI-H460
[10] = test system: DU-145
[11] = test system: 786-0
[12] = test system: BT-549
[13] = test system: MDA-MB-435
[14] = test system: SR
[15] = test system: HOP-62

Measured: GI50

O=C1c2cccc3cccc(c23)C(=O)N1O
inactive: [1] 28.6 µM | [2] 37.2 µM | [3] 70.5 µM | [4] 76.2 µM | [5] > 100 µM | [6] 51.8 µM | [7] > 100 µM | [8] > 100 µM | [9] 29.2 µM | [10] 53.6 µM | [11] 49.9 µM | [12] > 100 µM | [13] > 100 µM

C[C@]12CCC(=O)C=C1CC[C@@H]1[C@@H]2[C@@H](O)C[C@@]2(C)[C@H]1CC[C@]2(O)C(=O)COC(=O)C1CCCC1
inactive: [1] > 100 µM | [2] > 100 µM | [3] > 100 µM | [4] > 100 µM | [14] 43.3 µM | [15] > 100 µM | [5] > 100 µM | [6] 67.8 µM | [7] > 100 µM | [8] > 100 µM | [9] 87.3 µM | [10] > 100 µM | [11] > 100 µM | [12] > 100 µM | [13] > 100 µM

O=c1sc(Nc2ccc3ccccc3c2Cl)nc2ccccc12
inactive: [1] > 100 µM | [2] > 100 µM | [3] > 100 µM | [4] > 100 µM | [14] 7.08 µM | [15] > 100 µM | [6] > 100 µM | [7] > 100 µM | [8] > 100 µM | [9] 60.4 µM | [10] > 100 µM | [11] > 100 µM | [12] > 100 µM | [13] 37.1 µM

CN(C)CN1C(=O)/C(=N\n2c(S)nnc2-c2ccncc2)c2ccccc21
inactive: [1] 38.8 µM | [2] 16.6 µM | [3] 57.5 µM | [4] 35.6 µM | [15] 24.8 µM | [5] > 100 µM | [6] 22.2 µM | [7] 30.8 µM | [8] 41.9 µM | [9] 38.3 µM | [10] 26.5 µM | [11] 16.9 µM | [12] 94.4 µM | [13] 15.8 µM

O=C1c2ccccc2C(=O)c2c1sc1nc3ccccc3n21
inactive: [1] 3.52 µM | [3] 1.89 µM | [4] 2.64 µM | [14] 3.53 µM | [5] 10.7 µM | [6] 3.9 µM | [7] 1.83 µM | [8] 1.77 µM | [9] 1.79 µM | [10] 1.75 µM | [11] 2.15 µM | [12] 1.98 µM | [13] 2.11 µM

Cc1ccc(/C=C2\Cc3c(C)cc(C)cc3C2=O)c(C(=O)O)c1
inactive: [1] 29.9 µM | [2] 78.9 µM | [3] 40.5 µM | [4] 41.9 µM | [14] 29.4 µM | [15] 83.4 µM | [5] 30.1 µM | [6] 45.3 µM | [7] 82.2 µM | [8] 90.6 µM | [9] 48.2 µM | [10] 51.5 µM | [11] 61.5 µM | [12] 28.6 µM | [13] 31.6 µM

COc1cc(OC)nc(-n2c(N)c(C(=O)O)c3ccc([N+](=O)[O-])cc3c2=O)n1
inactive: [1] > 100 µM | [2] > 100 µM | [3] > 100 µM | [4] > 100 µM | [14] > 100 µM | [15] > 100 µM | [5] > 100 µM | [6] > 100 µM | [7] > 100 µM | [8] > 100 µM | [9] > 100 µM | [10] > 100 µM | [11] > 100 µM | [12] > 100 µM | [13] > 100 µM

CCOC(=O)/C=C(\C(=O)OCC)n1ccc(=O)n(Cc2cnnn2CCCCOC(C)=O)c1=O
inactive: [1] 27.3 µM | [2] 1.53 µM | [3] 15.6 µM | [4] 9.4 µM | [14] 2.19 µM | [15] 19.7 µM | [5] 21.1 µM | [6] 9.08 µM | [7] 4.07 µM | [8] 17.6 µM | [9] 8.53 µM | [10] 18.6 µM | [11] 3.46 µM | [12] 16.4 µM | [13] 6.85 µM

O=C(CCC(=O)OCC1OC(O)(CC2OC(CO)C(O)C(O)C2O)C(O)C1O)OCc1ccccc1 (configuration not stated)
inactive: [1] > 100 µM | [2] > 100 µM | [3] > 100 µM | [4] > 100 µM | [15] > 100 µM | [5] > 100 µM | [6] > 100 µM | [7] > 100 µM | [8] > 100 µM | [9] > 100 µM | [10] > 100 µM | [11] > 100 µM | [12] > 100 µM | [13] > 100 µM

COC(=O)C1(OC(=O)Sc2ccccc2)CCN(C)CC1
inactive: [1] 12.1 µM | [2] 16.2 µM | [3] 18.4 µM | [4] 7.57 µM | [14] 10.8 µM | [15] 32.1 µM | [5] 21.8 µM | [6] 21.4 µM | [7] 31.3 µM | [8] 13.1 µM | [9] 23.6 µM | [10] 23.8 µM | [11] 19 µM | [12] 1.5 µM | [13] 13.8 µM

COc1ccc(/C=C2/SC(c3ccccc3)N(NC(=O)CCCCCCCCC(=O)NN3C(=O)/C(=C\c4ccc(OC)c(OC)c4)SC3c3ccccc3)C2=O)cc1OC (configuration not stated)
inactive: [1] 57.3 µM | [3] 69.3 µM | [4] 76 µM | [14] 15.6 µM | [15] 35 µM | [5] 57.4 µM | [6] 71.8 µM | [7] 35.6 µM | [8] 60.3 µM | [9] 71 µM | [10] > 100 µM | [11] 19.6 µM | [12] > 100 µM | [13] 38.5 µM

CC(C)(C)OC(=O)NC(Cc1ccccc1)C(=O)N[C@H]1c2ccsc2/C(=N/O)[C@H]1O (some centres not stated)
inactive: [1] > 100 µM | [4] > 100 µM | [14] > 100 µM | [15] > 100 µM | [5] > 100 µM | [6] > 100 µM | [7] > 100 µM | [8] > 100 µM | [9] > 100 µM | [10] > 100 µM | [12] > 100 µM | [13] > 100 µM

CC(C)C(=O)Nc1cc(C(F)(F)F)ccc1[N+](=O)[O-]
inactive: [1] > 100 µM | [2] > 100 µM | [3] > 100 µM | [4] > 100 µM | [15] > 100 µM | [5] > 100 µM | [6] > 100 µM | [7] 81.5 µM | [8] > 100 µM | [9] 72.6 µM | [10] > 100 µM | [11] > 100 µM | [12] > 100 µM | [13] > 100 µM

O=C1OC(=O)c2c1cc1cc3c(cc1c2-c1ccc2c(c1)OCO2)OCO3
inactive: [1] > 100 µM | [2] > 100 µM | [3] > 100 µM | [4] > 100 µM | [5] > 100 µM | [6] > 100 µM | [7] > 100 µM | [8] > 100 µM | [9] > 100 µM | [10] > 100 µM | [11] 22 µM | [12] > 100 µM | [13] > 100 µM

COC(=O)c1cc2c3c(cc(N(C)C)c2[nH]1)N(C(=O)c1cc2cc(OC)c(OC)c(OC)c2[nH]1)CC3CCl (configuration not stated)
active: [1] < 0.0025 µM | [2] 0.00279 µM | [3] 0.00374 µM | [4] 0.00366 µM | [15] 0.00262 µM | [5] 0.00443 µM | [6] 0.25 µM | [7] < 0.0025 µM | [8] 0.00392 µM | [9] 0.00252 µM | [10] < 0.0025 µM | [11] < 0.0025 µM | [12] 0.018 µM | [13] 0.00298 µM

CC(C)(C)OC(=O)NC(CSSCC(NC(=O)OC(C)(C)C)C(=O)O)C(=O)O (configuration not stated)
inactive: [1] > 100 µM | [2] > 100 µM | [3] > 100 µM | [4] > 100 µM | [14] > 100 µM | [15] > 100 µM | [5] > 100 µM | [6] > 100 µM | [7] > 100 µM | [8] > 100 µM | [9] > 100 µM | [10] > 100 µM | [11] > 100 µM | [12] > 100 µM | [13] > 100 µM

N#CC(=S)Nc1ccc(F)cc1
inactive: [1] 34.4 µM | [3] 96.8 µM | [4] 57.7 µM | [14] 40.6 µM | [15] > 100 µM | [5] 32.7 µM | [6] 67.8 µM | [7] 24 µM | [8] 34.2 µM | [9] 55.3 µM | [10] 86.7 µM | [11] 53.8 µM | [12] 32.6 µM | [13] 38 µM

COc1ccc(-c2nc(-c3cnccn3)n(Cc3ccccc3)n2)cc1
inactive: [1] > 100 µM | [2] > 100 µM | [3] > 100 µM | [4] > 100 µM | [14] > 100 µM | [15] > 100 µM | [6] > 100 µM | [7] > 100 µM | [8] > 100 µM | [9] > 100 µM | [10] > 100 µM | [11] > 100 µM | [12] > 100 µM | [13] > 100 µM

C=C1CC[C@](C)(O)[C@@]2(C)CC[C@H]3C(=C(C)C)C(=O)C[C@]3(C)C[C@H]12
inactive: [1] > 50 µM | [2] 14.3 µM | [3] > 50 µM | [4] 21.1 µM | [14] 13.4 µM | [15] > 50 µM | [5] > 50 µM | [6] 18.3 µM | [7] 26.5 µM | [8] 27.7 µM | [10] > 50 µM | [11] 14.6 µM | [12] 25.8 µM | [13] 17.5 µM

From ChEMBL document CHEMBL1201862, “PubChem BioAssay data set” (2004)
